These results are taken from paper PMC11071266, “The putative proton-coupled organic cation antiporter is involved in uptake of triptans into human brain capillary endothelial cells” (Fluids and Barriers of the CNS, 2024).

What is called IC50 is the midpoint of a concentration-inhibition curve.

The conditions of series [1]: pH 7.4; extracted from ChemSpider; cited from earlier work.
The test system of series [2] is H^+/OC antiporter. The series is described as follows: Inhibition of [^3H]-pyrilamine uptake into hCMEC/D3 cells. It counts as cell-based, human. As to conditions: [^3H]-pyrilamine 1 µCi/mL, 48 nM, read-out: Apparent IC50 on [^3H]-pyrilamine uptake. Here is the method: The immortalized human cerebral microvascular endothelial cell line (hCMEC/D3) was maintained in T75-flasks coated with collagen type I from calf skin (C9791, 18.7 μg/mL) and cultured in EBM®-2 medium (Lonza, Basel, Schweiz) supplemented with 5% (v/v) fetal bovine serum (FBS, 10270, Life Technologies, CA, USA or SH3008803, ThermoFisher Scientific, MA, USA), 100 U/mL penicillin and 100 μg/ml streptomycin, 1 ng/mL human basic fibroblast growth factor (bFGF), 1.4 μM hydrocortisone, 1% (v/v) chemically defined lipid concentrate (ThermoFisher Scientific, MA, USA), 10 mM N-2-hydroxyethylpiperazine-N-2-ethane sulfonic acid (HEPES) and 5 μg/mL ascorbic acid (5% CO2, 37 °C). […] For experiments, cells were seeded into 24-well plates (6.7·10^4 cells/cm^2) and cultured for four continuous days. The cells were used for experiments between passage 3–31.
The cells were equilibrated in hHBSS with or without inhibitor for 15 min (37 °C, 90 rpm). The compound of interest was spiked into the hHBSS followed by incubation for a designated time. The timeframe of the initial uptake rate was validated into hCMEC/D3 cells (Fig. 1 and Additional file 1). The experiment was terminated by washing three times with ice-cold HBSS supplemented with 0.0375% (v/v) sodium bicarbonate.
The inhibitory constant at 50% inhibition (IC50) was determined by fitting the uptake flux (Jss) as function of the logarithmic inhibitor concentration to Eq. 2.2 Jss=Jmin+(Jmax-Jmin)/1+10^logIC50-InH where [I] is the inhibitor concentration, nH is the Hill coefficient.
The hCMEC/D3 cells were used for [^3H]-pyrilamine inhibition studies between passage 3–6 (pyrilamine, oxycodone), 16–18 (almotriptan), 7–13 (eletriptan), 25–27 (frovatriptan), 3–8 (naratriptan), 16–18 (rizatriptan), 12–14 (sumatriptan), and 14–16 (zolmitriptan).
The cells were permeabilized using 0.1% (v/v) Triton X-100 in ultrapure water (ELGA, Buckinghamshire, England) for 10 min at room temperature. Thereafter, the cells were scraped off the bottom of the wells, transferred to scintillation vials, and mixed with 2 mL of Ultima Gold 241 TM (Perkin Elmer, MA, USA). The samples were analyzed using a Tri-Carb 2910 TR Liquid Scintillation Analyzer (Perkin Elmer, MA, USA).

Series [3] has as its system H^+/OC antiporter. More on the design: method as in PMID 35955563. To be noted: trans-stimulation in hCMEC/D3 cells; cited from earlier work.
The nature of series [4]: Physicochemical properties extracted from databases. An excerpt: Triptans are a relatively homogeneous group of drug compounds with similar physicochemical properties, including molecular weights < 400 g/mol and a low to moderate lipophilicity (cLogD values ranging from − 2.1–0.18). […] As a consequence, it is unlikely that triptans cross the brain microvascular endothelium through passive diffusion to a clinically relevant extent. Table 1 summarizes structures and physicochemical properties of the triptans, as well as oxycodone and pyrilamine, which are two prototypical H^+/OC antiporter substrates included in this study.

In the next series the target is P-gp (Homo sapiens, UniProt P08183). More on the design: expressed in transfected cells; host or cells: IPEC-J2 (porcine ileum epithelial cell line); method as in PMID 12438524. As to conditions: MDR1-MDCKII cell line; cited from earlier work.
Series [5] has as its system organic cation transporter 1 (OCT1). More on the design: method as in PMID 35955563. To be noted: cited from earlier work.

P-gp, sequence (P08183 whole entry): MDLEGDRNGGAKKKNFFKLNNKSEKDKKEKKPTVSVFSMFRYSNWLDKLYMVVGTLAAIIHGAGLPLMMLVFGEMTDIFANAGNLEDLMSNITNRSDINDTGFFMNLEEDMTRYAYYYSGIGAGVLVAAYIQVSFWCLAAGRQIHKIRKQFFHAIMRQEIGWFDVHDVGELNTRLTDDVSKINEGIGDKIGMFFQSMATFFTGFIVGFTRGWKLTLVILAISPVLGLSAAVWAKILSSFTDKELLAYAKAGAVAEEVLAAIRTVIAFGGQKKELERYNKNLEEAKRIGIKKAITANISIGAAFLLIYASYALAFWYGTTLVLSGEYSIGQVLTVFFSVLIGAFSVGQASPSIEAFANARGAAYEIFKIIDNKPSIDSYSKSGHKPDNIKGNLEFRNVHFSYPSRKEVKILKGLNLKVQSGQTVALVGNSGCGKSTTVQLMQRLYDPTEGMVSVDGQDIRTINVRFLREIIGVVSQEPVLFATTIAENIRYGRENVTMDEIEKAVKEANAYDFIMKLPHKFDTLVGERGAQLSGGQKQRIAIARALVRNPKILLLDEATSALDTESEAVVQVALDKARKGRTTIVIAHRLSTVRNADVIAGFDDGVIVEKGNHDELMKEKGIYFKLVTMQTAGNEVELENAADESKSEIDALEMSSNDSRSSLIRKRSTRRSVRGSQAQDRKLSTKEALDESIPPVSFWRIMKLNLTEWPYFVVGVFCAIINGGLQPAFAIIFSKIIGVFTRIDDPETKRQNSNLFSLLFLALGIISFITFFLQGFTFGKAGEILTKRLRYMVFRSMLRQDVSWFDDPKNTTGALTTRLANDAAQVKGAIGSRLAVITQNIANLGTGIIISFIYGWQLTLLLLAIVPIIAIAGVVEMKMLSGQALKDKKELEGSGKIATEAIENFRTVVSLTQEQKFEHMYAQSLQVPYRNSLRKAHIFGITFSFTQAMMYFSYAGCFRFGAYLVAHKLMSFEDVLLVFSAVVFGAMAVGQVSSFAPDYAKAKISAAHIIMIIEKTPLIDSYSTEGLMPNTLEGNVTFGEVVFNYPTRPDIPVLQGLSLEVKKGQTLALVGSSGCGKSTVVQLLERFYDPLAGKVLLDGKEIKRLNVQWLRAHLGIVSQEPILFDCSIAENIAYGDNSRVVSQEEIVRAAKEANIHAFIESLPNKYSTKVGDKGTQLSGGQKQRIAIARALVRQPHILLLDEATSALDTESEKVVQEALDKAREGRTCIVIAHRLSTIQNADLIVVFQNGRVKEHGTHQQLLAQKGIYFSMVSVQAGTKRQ

Consider `CN(C)CCc1c[nH]c2ccc(C[C@H]3COC(=O)N3)cc12` [Zolmitriptan], for which, in series [1], the “cLogD pH 7.4” value is on record as 0.4. The IC50 in the series on H^+/OC antiporter [2] was determined as 1730 ± 1210 µM. In the series with H^+/OC antiporter [3], the “H^+/OC antiporter substrate” value is “did not appear to be H^+/OC antiporter substrate candidates”. For the same compound, the “Overall charge pH 7.4” value in series [4] was “Positive”. The ER on P-gp was 2.48. In addition, the OCT1 substrate entry in series [5] is listed as “substrates of OCT1”.
